The source of these data is patent US9890166B2, “Imidazopyrrolidine derivatives and their use in the treatment of disease” (NOVARTIS AG, priority 2013, dated 2018).

Structures are written as SMILES. Where only a bound is given, the exact number is not on record here.

What is called IC50 is the concentration at which inhibition is half-maximal. What is called GI50 is the concentration giving 50% growth inhibition.

The target in one experiment is BRD4 (His-Brd4(44-477)) (Homo sapiens (Human), UniProt O60885). Nature of the experiment: TR-FRET in-vitro binding assay for BRD4. The conditions noted are these: single determination or n ≧ 2 independent determinations, read-out: Biochemical IC50 BRD4. A digest of the protocol:
(§1)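 His-tagged BRD2, BRD3 and BRD4 fragments tested by TR-FRET at 8 compound concentrations, with DMSO stocks at 10 mM. Read on EnVision after 35 min incubation at 30° C.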
Background: In TR-FRET formats the signal depends on donor and acceptor labels being close together.

In another experiment the test system is MV-4-11 cells. Kind of experiment: Cell growth inhibition assay (CellTiter-Glo), MV-4-11.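 For all read-outs here: cellular ATP luminescence after 4 days, 3-fold dilution series from 10 µM top dose, vehicle (0.1% DMSO) set to 100%, cell-free medium set to −100%, day 0 corrected.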 The conditions noted are these: for GI50: Homo sapiens, MV4-11, read-out: MV-4-11 GI50; for MV-4-11 TGI: MV-4-11 cells, total growth inhibition, CellTiter-Glo. (In general: Cellular ATP, detected with luciferase, serves as a proxy for viable cell number.)
A further experiment deals with BRD2 (His-Brd2(60-472)) (Homo sapiens (Human), UniProt P25440). Kind of experiment: TR-FRET in-vitro binding assay for BRD2. The conditions noted are these: single determination or n ≧ 2 independent determinations, read-out: Biochemical IC50 BRD2. The gist of the method: as §1
Sequence of BRD2 (His-Brd2(60-472)) (P25440 60-472): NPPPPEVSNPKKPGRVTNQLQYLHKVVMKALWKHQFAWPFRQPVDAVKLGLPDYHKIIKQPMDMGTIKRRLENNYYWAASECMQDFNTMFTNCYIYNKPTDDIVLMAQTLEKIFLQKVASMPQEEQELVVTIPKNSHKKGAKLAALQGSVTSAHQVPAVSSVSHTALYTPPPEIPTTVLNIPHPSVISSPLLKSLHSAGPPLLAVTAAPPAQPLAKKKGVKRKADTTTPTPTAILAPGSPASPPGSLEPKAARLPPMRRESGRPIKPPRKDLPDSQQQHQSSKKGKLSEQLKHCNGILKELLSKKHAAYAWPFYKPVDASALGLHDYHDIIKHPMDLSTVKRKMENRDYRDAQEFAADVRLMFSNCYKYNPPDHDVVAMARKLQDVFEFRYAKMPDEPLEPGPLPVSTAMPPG
The next experiment deals with BRD3 (His-Brd3(20-477)) (Homo sapiens (Human), UniProt Q15059). Kind of experiment: TR-FRET in-vitro binding assay for BRD3. To be noted: single determination or n ≧ 2 independent determinations, read-out: Biochemical IC50 BRD3. A digest of the protocol: as §1
Sequence of BRD3 (His-Brd3(20-477)) (Q15059 20-477): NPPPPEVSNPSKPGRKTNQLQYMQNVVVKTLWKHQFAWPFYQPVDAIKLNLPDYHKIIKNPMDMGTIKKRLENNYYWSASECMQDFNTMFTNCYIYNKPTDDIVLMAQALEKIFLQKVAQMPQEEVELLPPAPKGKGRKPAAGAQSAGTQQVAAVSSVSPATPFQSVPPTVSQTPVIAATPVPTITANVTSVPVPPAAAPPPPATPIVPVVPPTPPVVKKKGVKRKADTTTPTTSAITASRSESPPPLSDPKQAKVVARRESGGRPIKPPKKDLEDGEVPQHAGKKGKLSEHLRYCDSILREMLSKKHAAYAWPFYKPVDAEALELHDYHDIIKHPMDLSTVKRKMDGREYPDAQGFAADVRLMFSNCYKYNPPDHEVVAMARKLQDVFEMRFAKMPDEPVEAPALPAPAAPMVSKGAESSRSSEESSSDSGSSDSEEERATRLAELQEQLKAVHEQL
The test system of the next experiment is K-562 cells. Nature of the experiment: Cell growth inhibition assay (CellTiter-Glo), K-562.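 For all read-outs here: cellular ATP measured by luminescence after 4 days of exposure, 3-fold dilution series from 10 µM, DMSO vehicle-treated cells define 100%, cell-free medium wells −100%.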 The conditions noted are these: for GI50: Homo sapiens, K562, read-out: K-562 GI50; for K-562 TGI: K-562 cells, total growth inhibition, CellTiter-Glo.
Experiment [1] concerns the target CREBBP bromodomain (His-CREBBP(1081-1197)) (Homo sapiens (Human), UniProt Q92793). Nature of the experiment: AlphaScreen in-vitro binding assay for CREBBP. The conditions noted are these: single determination or n ≧ 2 independent determinations, read-out: Biochemical IC50 CREBBP. The gist of the method:
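Detection used nickel-chelate acceptor plus streptavidin donor AlphaScreen beads, 1 h room temperature. Percent inhibition fitted by non-linear regression to IC50.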
Background: Alpha assays give light when donor and acceptor beads are brought close together.

In a further experiment the test system is THP-1 cells. Nature of the experiment: Cell growth inhibition assay (CellTiter-Glo), THP-1.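 For all read-outs here: viability read as cellular ATP luminescence after 4 days, 3-fold dilution series from 10 µM, DMSO vehicle-treated cells taken as 100%, cell-free medium wells as −100%.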 The conditions noted are these: for GI50: Homo sapiens, THP-1, read-out: THP-1 GI50; for THP-1 TGI: THP-1 cells, total growth inhibition, CellTiter-Glo.

Sequence of CREBBP bromodomain (His-CREBBP(1081-1197)) (Q92793 1081-1197): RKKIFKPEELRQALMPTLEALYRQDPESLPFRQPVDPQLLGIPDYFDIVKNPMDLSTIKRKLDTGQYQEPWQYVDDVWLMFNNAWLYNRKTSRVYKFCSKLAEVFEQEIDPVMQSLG

Take `Cc1nc2c([nH]1)C(c1ccc(Cl)cc1)N(c1cc(C)c3nnc(C(F)F)n3c1)C2=O` (stereo not drawn) [Example 139, 6-(4-chlorophenyl)-5-(3-(difluoromethyl)-8-methyl-[1,2,4]triazolo[4,3-a]pyridin-6-yl)-2-methyl-5,6-dihydropyrrolo[3,4-d]imidazol-4(1H)-one]: the half-inhibitory concentration (IC50) on BRD4 (His-Brd4(44-477)) was 32.5 nM; on BRD2 (His-Brd2(60-472)), 86 nM; on BRD3 (His-Brd3(20-477)) it was 42 nM; in experiment [1] it was greater than 37000 nM. For the same compound, the GI50 with MV-4-11 cells was 57.5 nM; in the experiment on K-562 cells it was 214 nM; in the experiment with THP-1 cells, 40.7 nM. Further, the “MV-4-11 TGI” value in the experiment with MV-4-11 cells came to 99.2 nM. For the same compound, the “K-562 TGI” value with K-562 cells is greater than 10000 nM. Further, the “THP-1 TGI” value in the experiment on THP-1 cells worked out at 115.5 nM.
For the compound `COc1ncccc1-c1nc2c([nH]1)C(c1ccc(Cl)cc1)N(c1cc(C)c3nnc(C(F)F)n3c1)C2=O` (stereo not drawn) [Example 140, 6-(4-chlorophenyl)-5-(3-(difluoromethyl)-8-methyl-[1,2,4]triazolo[4,3-a]pyridin-6-yl)-2-(2-methoxypyridin-3-yl)-5,6-dihydropyrrolo[3,4-d]imidazol-4(1H)-one], the IC50 on BRD4 (His-Brd4(44-477)) was 29 nM; at BRD2 (His-Brd2(60-472)), 42 nM; on BRD3 (His-Brd3(20-477)), 28 nM; in experiment [1], greater than 37000 nM. Also, the results for the GI50 with MV-4-11 cells, with K-562 cells and with THP-1 cells were 38.4 nM, 180 nM and 63.6 nM, respectively. The “MV-4-11 TGI” value with MV-4-11 cells turned out to be 66.8 nM. The “K-562 TGI” value in the experiment on K-562 cells was greater than 10000 nM. Also, the “THP-1 TGI” value in the experiment on THP-1 cells amounted to 124.5 nM.
Turning to `COc1ccc(-c2nc3c([nH]2)C(c2ccc(Cl)cc2)N(c2cc(C)c4nnc(C(F)F)n4c2)C3=O)cn1` (stereo not drawn) [Example 141, 6-(4-chlorophenyl)-5-(3-(difluoromethyl)-8-methyl-[1,2,4]triazolo[4,3-a]pyridin-6-yl)-2-(6-methoxypyridin-3-yl)-5,6-dihydropyrrolo[3,4-d]imidazol-4(1H)-one], the IC50 is 23.5 nM at BRD4 (His-Brd4(44-477)), 47 nM on BRD2 (His-Brd2(60-472)), 21 nM on BRD3 (His-Brd3(20-477)) and greater than 37000 nM in experiment [1]. For the same compound, the GI50 was determined as 73.2 nM in the experiment on MV-4-11 cells, 202 nM with K-562 cells and 77 nM in the experiment with THP-1 cells. The “MV-4-11 TGI” value with MV-4-11 cells worked out at 111.5 nM. Besides, the “K-562 TGI” value with K-562 cells was greater than 10000 nM. Besides, the “THP-1 TGI” value in the experiment on THP-1 cells turned out to be 179 nM.
For `COc1ncc(-c2nc3c(n2C(C)C)C(c2ccc(Cl)cc2)N(c2cc(C)c4nnc(C(F)F)n4c2)C3=O)c(OC)n1` (stereo not drawn) [Example 143, 6-(4-chlorophenyl)-5-(3-(difluoromethyl)-8-methyl-[1,2,4]triazolo[4,3-a]pyridin-6-yl)-2-(2,4-dimethoxypyrimidin-5-yl)-1-isopropyl-5,6-dihydropyrrolo[3,4-d]imidazol-4(1H)-one], the 50% inhibitory concentration (IC50) is 19 nM at BRD4 (His-Brd4(44-477)), 34 nM at BRD2 (His-Brd2(60-472)), 18 nM on BRD3 (His-Brd3(20-477)) and greater than 37000 nM in experiment [1]. Also, the concentration for 50% growth inhibition (GI50) in the experiment with MV-4-11 cells worked out at 9.19 nM; with K-562 cells it was 44 nM; with THP-1 cells, 11.3 nM. Also, the “MV-4-11 TGI” value in the experiment with MV-4-11 cells is 16.1 nM. For the same compound, the “K-562 TGI” value in the experiment with K-562 cells was greater than 10000 nM. For the same compound, the “THP-1 TGI” value with THP-1 cells stood at 30.65 nM.
Regarding `COc1cc(C(F)(F)F)ccc1-c1nc2c(n1C(C)C)C(c1ccc(Cl)cc1)N(c1cc(C)c3nnc(C(F)F)n3c1)C2=O` (stereo not drawn) [Example 144, 6-(4-chlorophenyl)-5-(3-(difluoromethyl)-8-methyl-[1,2,4]triazolo[4,3-a]pyridin-6-yl)-1-isopropyl-2-(2-methoxy-4-(trifluoromethyl)phenyl)-5,6-dihydropyrrolo[3,4-d]imidazol-4(1H)-one], the IC50 on BRD4 (His-Brd4(44-477)) was 23 nM; at BRD2 (His-Brd2(60-472)) it was 26 nM; on BRD3 (His-Brd3(20-477)) it was 22 nM; in experiment [1], greater than 37000 nM. Moreover, the results for the GI50 in the experiment with MV-4-11 cells, in the experiment on K-562 cells and with THP-1 cells were 30.8 nM, 116 nM and 46.2 nM, respectively. Moreover, the “MV-4-11 TGI” value in the experiment with MV-4-11 cells came out at 46.9 nM. The “K-562 TGI” value in the experiment on K-562 cells is greater than 10000 nM. Further, the “THP-1 TGI” value in the experiment on THP-1 cells stood at 92.95 nM.
Regarding `Cc1cc(N2C(=O)c3nc(C4CC4)n(C(C)C)c3C2c2ccc(Cl)cc2)cn2c(C(F)F)nnc12` (stereo not drawn) [Example 145, 6-(4-chlorophenyl)-2-cyclopropyl-5-(3-(difluoromethyl)-8-methyl-[1,2,4]triazolo[4,3-a]pyridin-6-yl)-1-isopropyl-5,6-dihydropyrrolo[3,4-d]imidazol-4(1H)-one], the IC50 is 28 nM at BRD4 (His-Brd4(44-477)), 54 nM at BRD2 (His-Brd2(60-472)), 29 nM on BRD3 (His-Brd3(20-477)) and greater than 37000 nM in experiment [1]. Further, the GI50 in the experiment with MV-4-11 cells worked out at 14 nM; in the experiment with K-562 cells, 70.2 nM; in the experiment with THP-1 cells, 22.2 nM. Also, the “MV-4-11 TGI” value with MV-4-11 cells was 26.95 nM. Besides, in the experiment on K-562 cells, the “K-562 TGI” value is greater than 10000 nM. Further, the “THP-1 TGI” value in the experiment with THP-1 cells came out at 47.6 nM.
As for `Cc1cc(N2C(=O)c3nc(C)n(C(C)C)c3[C@H]2c2ccc(Cl)cc2)cn2c(C(F)F)nnc12` [Example 146, (R)-6-(4-chlorophenyl)-5-(3-(difluoromethyl)-8-methyl-[1,2,4]triazolo[4,3-a]pyridin-6-yl)-1-isopropyl-2-methyl-5,6-dihydropyrrolo[3,4-d]imidazol-4(1H)-one], the IC50 at BRD4 (His-Brd4(44-477)) is less than 11 nM; on BRD2 (His-Brd2(60-472)), 20 nM; on BRD3 (His-Brd3(20-477)), 12 nM; in experiment [1], greater than 37000 nM. Also, the GI50 in the experiment on MV-4-11 cells was found to be 9.57 nM; with K-562 cells, 46.9 nM; with THP-1 cells, 11 nM. Also, the “MV-4-11 TGI” value in the experiment with MV-4-11 cells is 15.05 nM. Further, the “K-562 TGI” value in the experiment with K-562 cells was greater than 10000 nM. For the same compound, in the experiment with THP-1 cells, the “THP-1 TGI” value is 29.75 nM.
As for `Cc1cc(N2C(=O)c3nc(C4=CCOCC4)n(C(C)C)c3C2c2ccc(Cl)cc2)cn2c(C(F)F)nnc12` (stereo not drawn) [Example 147, 6-(4-chlorophenyl)-5-(3-(difluoromethyl)-8-methyl-[1,2,4]triazolo[4,3-a]pyridin-6-yl)-2-(3,6-dihydro-2H-pyran-4-yl)-1-isopropyl-5,6-dihydropyrrolo[3,4-d]imidazol-4(1H)-one], the 50% inhibitory concentration (IC50) was 13 nM on BRD4 (His-Brd4(44-477)), 60 nM at BRD2 (His-Brd2(60-472)), 44 nM at BRD3 (His-Brd3(20-477)) and 34300 nM in experiment [1]. In addition, the GI50 was determined as 8.12 nM with MV-4-11 cells, 52 nM in the experiment with K-562 cells and 11.8 nM in the experiment on THP-1 cells. In the experiment with MV-4-11 cells, the “MV-4-11 TGI” value worked out at 16.25 nM. Moreover, the “K-562 TGI” value in the experiment with K-562 cells was greater than 10000 nM. Also, the “THP-1 TGI” value in the experiment on THP-1 cells was 33.55 nM.
`COc1ncccc1-c1nc2c(n1C(C)C)C(c1ccc(Cl)cc1)N(c1cc(C)c3nnc(C(F)F)n3n1)C2=O` (stereo not drawn) [Example 148, 6-(4-chlorophenyl)-5-(3-(difluoromethyl)-8-methyl-[1,2,4]triazolo[4,3-b]pyridazin-6-yl)-1-isopropyl-2-(2-methoxypyridin-3-yl)-5,6-dihydropyrrolo[3,4-d]imidazol-4(1H)-one]: the concentration for half-maximal inhibition (IC50) was 23 nM on BRD4 (His-Brd4(44-477)), 36 nM at BRD2 (His-Brd2(60-472)), 22 nM on BRD3 (His-Brd3(20-477)) and greater than 37000 nM in experiment [1]. For the same compound, the GI50 in the experiment on MV-4-11 cells was determined as 6.47 nM; with K-562 cells it was 69.5 nM; with THP-1 cells it was 9.99 nM. Besides, in the experiment on MV-4-11 cells, the “MV-4-11 TGI” value is 13.1 nM. Further, the “K-562 TGI” value in the experiment with K-562 cells was greater than 10000 nM. The “THP-1 TGI” value with THP-1 cells stood at 24.95 nM.
